Reference: the supplement of paper PMC11451515

Tested on: P12-Ichikawa
Assay: cell viability relative to DMSO control; higher = less cytotoxic
Conditions: 48 h
Outline: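 Cells were incubated for 48 h at 37°C before CellTiter-Glo One luminescence was read. The cells were NOMO1 or SEM (500 cells/well) or P12-Ichikawa (1000 cells/well) leukemia cells, adapted for at least four passages in each medium and seeded in 1536-well plates (5 μl). Dosing used library compounds in DMSO applied by pin over 11 threefold points, 47 μM to 0.79 nM. Viability is the per-plate percentage of DMSO wells, with cell-free wells as background.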

[1] = HPLM + 10% dialyzed FBS, 0.000781 µM
[2] = HPLM + 10% dialyzed FBS, 0.00234 µM
[3] = HPLM + 10% dialyzed FBS, 0.00702 µM
[4] = HPLM + 10% dialyzed FBS, 0.0211 µM
[5] = HPLM + 10% dialyzed FBS, 0.0632 µM
[6] = HPLM + 10% dialyzed FBS, 0.19 µM
[7] = HPLM + 10% dialyzed FBS, 0.569 µM
[8] = HPLM + 10% dialyzed FBS, 1.71 µM
[9] = HPLM + 10% dialyzed FBS, 5.12 µM
[10] = HPLM + 10% dialyzed FBS, 15.4 µM
[11] = HPLM + 10% dialyzed FBS, 46.1 µM
[12] = RPMI 5 mM glucose + 10% FBS, 0.000781 µM
[13] = RPMI 5 mM glucose + 10% FBS, 0.00234 µM
[14] = RPMI 5 mM glucose + 10% FBS, 0.00702 µM
[15] = RPMI 5 mM glucose + 10% FBS, 0.0211 µM
[16] = RPMI 5 mM glucose + 10% FBS, 0.0632 µM
[17] = RPMI 5 mM glucose + 10% FBS, 0.19 µM
[18] = RPMI 5 mM glucose + 10% FBS, 0.569 µM
[19] = RPMI 5 mM glucose + 10% FBS, 1.71 µM
[20] = RPMI 5 mM glucose + 10% FBS, 5.12 µM
[21] = RPMI 5 mM glucose + 10% FBS, 15.4 µM
[22] = RPMI 5 mM glucose + 10% FBS, 46.1 µM
[23] = RPMI 5 mM glucose + 10% dialyzed FBS, 0.000781 µM
[24] = RPMI 5 mM glucose + 10% dialyzed FBS, 0.00234 µM
[25] = RPMI 5 mM glucose + 10% dialyzed FBS, 0.00702 µM
[26] = RPMI 5 mM glucose + 10% dialyzed FBS, 0.0211 µM
[27] = RPMI 5 mM glucose + 10% dialyzed FBS, 0.0632 µM
[28] = RPMI 5 mM glucose + 10% dialyzed FBS, 0.19 µM
[29] = RPMI 5 mM glucose + 10% dialyzed FBS, 0.569 µM
[30] = RPMI 5 mM glucose + 10% dialyzed FBS, 1.71 µM
[31] = RPMI 5 mM glucose + 10% dialyzed FBS, 5.12 µM
[32] = RPMI 5 mM glucose + 10% dialyzed FBS, 15.4 µM
[33] = RPMI 5 mM glucose + 10% dialyzed FBS, 46.1 µM

| SMILES | cell viability [1] | cell viability [2] | cell viability [3] | cell viability [4] | cell viability [5] | cell viability [6] | cell viability [7] | cell viability [8] | cell viability [9] | cell viability [10] | cell viability [11] | cell viability [12] | cell viability [13] | cell viability [14] | cell viability [15] | cell viability [16] | cell viability [17] | cell viability [18] | cell viability [19] | cell viability [20] | cell viability [21] | cell viability [22] | cell viability [23] | cell viability [24] | cell viability [25] | cell viability [26] | cell viability [27] | cell viability [28] | cell viability [29] | cell viability [30] | cell viability [31] | cell viability [32] | cell viability [33] |
| --- | --- | --- | --- | --- | --- | --- | --- | --- | --- | --- | --- | --- | --- | --- | --- | --- | --- | --- | --- | --- | --- | --- | --- | --- | --- | --- | --- | --- | --- | --- | --- | --- | --- |
| CN(NC(=O)CC(=O)NN(C)C(=S)c1ccccc1)C(=S)c1ccccc1 | 90.7% | 88.6% | 91.7% | 88.1% | 58.8% | 31.4% | 4.03% | 3.29% | 3.87% | 4.02% | 38.3% | 75.8% | 86.9% | 86.6% | 90.8% | 56.8% | 24.1% | 2.71% | 2.73% | 3.65% | 3.06% | 42.1% | 92.4% | 89.9% | 102% | 101% | 58.4% | 20.1% | 3.2% | 2.92% | 3.18% | 3.13% | 31.3% |
| COc1ccc(-c2nc(N3CCOCC3)c3sc(CN(C)c4ncc(C(=O)NO)cn4)cc3n2)cn1 | 109% | 121% | 101% | 62.6% | 6.62% | 7.21% | 7.09% | 6.69% | 6.67% | 6.8% | 7.92% | 102% | 127% | 111% | 57.6% | 7.68% | 7.7% | 7.72% | 6.89% | 7.19% | 7.05% | 5.24% | 107% | 119% | 108% | 74.2% | 10.5% | 8.35% | 8.38% | 8.07% | 7.55% | 6.64% | 5.83% |
| Cn1c(CNc2ccc(C(=N)N)cc2)nc2cc(C(=O)N(CCC(=O)O)c3ccccn3)ccc21 | 96.7% | 102% | 107% | 109% | 105% | 114% | 104% | 109% | 117% | 113% | 114% | 100% | 118% | 120% | 118% | 123% | 113% | 122% | 128% | 115% | 110% | 120% | 97.3% | 111% | 112% | 110% | 115% | 110% | 109% | 120% | 112% | 105% | 112% |
| CCC(C)(Oc1ccc(C2(c3ccc(OC(C)(CC)C(=O)O)cc3)CCCCC2)cc1)C(=O)O (configuration not stated) | 109% | 106% | 103% | 110% | 99.2% | 103% | 103% | 106% | 107% | 94% | 98.4% | 90.9% | 95.6% | 97% | 93.2% | 97.8% | 97.2% | 97.6% | 101% | 100% | 92.1% | 94.1% | 87.5% | 95.5% | 89% | 86.6% | 96.8% | 92% | 82.1% | 91% | 89.1% | 86.7% | 85.3% |
